Laboratory results from ChEMBL document CHEMBL6078706, “Deciphering the Comprehensive Structure-Activity Relationship of Sunshinamide for Breast Cancer Therapy through Dual Modulation of Apoptotic and Ferroptotic Pathways via TrxR1 and Gpx4 Inhibition” (J Med Chem, 2024).
The source made the active and inactive calls.

Experiments:
[1] = Toxicity in female BALB/c mouse implanted with mouse 4T1 cells assessed as heart lesion at 10 mg/kg, iv; type: organism-based; conditions: in vivo
MDA-MB-468 [2] = assay: Induction of ROS production in human MDA-MB-468 cells assessed as increase in fluorescent signal at 25 nM incubated for 6 hrs by DCFH-DA staining based flow cytometry analysis; type: functional, cell-based
4T1 [3] = assay: Antitumor activity against mouse 4T1 cells implanted in female BALB/c mouse assessed as increase in CHOP level in tumor at 10 mg/kg, iv administered upto 5 days by Western blot analysis; type: functional, organism-based; conditions: time <= 5.0 day
A549 = assay: Antiproliferative activity against human A549 cells assessed as cell viability at 10 nM incubated for 48 hrs by MTT assay; type: functional, cell-based
MDA-MB-468 [4] = assay: Induction of apoptosis in human MDA-MB-468 cells assessed as increase in caspase 3/7 activation at 25 nM measured at 4 hrs by Western blot analysis; type: functional, cell-based
Cisplatin-resistant 4T1 [5] = assay: Antiproliferative activity against mouse Cisplatin-resistant 4T1 cells assessed as reduction in cell viability incubated for 48 hrs by MTT assay; type: functional, cell-based
Cisplatin-resistant 4T1 [6] = assay: Antitumor activity against mouse Cisplatin-resistant 4T1 cells implanted in female BALB/c mouse assessed as reduction in tumor weight at 10 mg/kg, ip; type: functional, organism-based
MDA-MB-468 [7] = assay: Antiproliferative activity against human MDA-MB-468 cells assessed as reduction in cell viability at 50 nM incubated for 48 hrs in presence of N-acetyl cysteine by MTT assay; type: functional, cell-based
MDA-MB-468 [8] = assay: Antiproliferative activity against human MDA-MB-468 cells assessed as reduction in cell viability at 50 nM incubated for 48 hrs in presence of Z-VAD by MTT assay; type: functional, cell-based
MDA-MB-468 [9] = assay: Induction of mitochondrial dysfunction in human MDA-MB-468 cells assessed as reduction in oxygen consumption rate (OCR) at 25 nM; type: functional, cell-based
[10] = Toxicity in female BALB/c mouse implanted with mouse 4T1 cells assessed as heart inflammation at 10 mg/kg, iv; type: organism-based; conditions: in vivo
4T1 [11] = assay: Antitumor activity against mouse 4T1 cells implanted in female BALB/c mouse model assessed as increase in cleaved caspase-3 level in tumor at 10 mg/kg, iv administered upto 5 days; type: functional, organism-based; conditions: time <= 5.0 day
[12] = molecular target: T1, Cystine/glutamate transporter (Homo sapiens) (UniProt Q9UPY5); assay: Inhibition of Xc- in human MDA-MB-468 cells assessed as decrease in glutamate release at 25 nM incubated for 12 hrs; type: cell-based
T1 sequence (whole entry): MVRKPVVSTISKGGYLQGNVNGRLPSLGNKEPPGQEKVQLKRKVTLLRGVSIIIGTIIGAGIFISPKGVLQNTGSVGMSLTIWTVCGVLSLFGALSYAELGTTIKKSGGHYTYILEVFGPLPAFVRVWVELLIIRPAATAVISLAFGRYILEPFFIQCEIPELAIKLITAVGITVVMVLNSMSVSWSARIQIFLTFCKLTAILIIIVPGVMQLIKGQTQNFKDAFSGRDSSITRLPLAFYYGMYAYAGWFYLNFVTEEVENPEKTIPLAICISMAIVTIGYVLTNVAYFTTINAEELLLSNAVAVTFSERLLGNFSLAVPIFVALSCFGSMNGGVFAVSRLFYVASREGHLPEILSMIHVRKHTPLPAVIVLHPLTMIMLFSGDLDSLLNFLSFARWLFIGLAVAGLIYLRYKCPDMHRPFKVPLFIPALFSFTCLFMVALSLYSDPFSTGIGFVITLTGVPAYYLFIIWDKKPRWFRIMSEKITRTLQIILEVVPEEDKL

MDA-MB-468 [13] = assay: Induction of ferroptosis in human MDA-MB-468 cells assessed as increase in MDA level at 25 nM; type: functional, cell-based
[14] = Toxicity in female BALB/c mouse implanted with mouse 4T1 cells assessed as lung inflammation at 10 mg/kg, iv; type: organism-based; conditions: in vivo
4T1 [15] = assay: Antitumor activity against mouse 4T1 cells implanted in female BALB/c mouse assessed as reduction in tumor volume at 10 mg/kg, iv administered upto 5 days; type: functional, organism-based; conditions: time <= 5.0 day
4T1 [16] = assay: Antitumor activity against mouse 4T1 cells implanted in female BALB/c mouse assessed as increase in phospho PERK level in tumor at 10 mg/kg, iv administered upto 5 days by Western blot analysis; type: functional, organism-based; conditions: time <= 5.0 day
4T1 [17] = assay: Antitumor activity against mouse 4T1 cells implanted in female BALB/c mouse assessed as increase in MDA level in tumor at 10 mg/kg, iv administered upto 5 days by Western blot analysis; type: functional, organism-based; conditions: time <= 5.0 day
[18] = Toxicity in female BALB/c mouse implanted with mouse 4T1 cells assessed as lung abnormality at 10 mg/kg, iv; type: organism-based; conditions: in vivo
[19] = Toxicity in female BALB/c mouse implanted with mouse 4T1 cells assessed as spleen inflammation at 10 mg/kg, iv; type: organism-based; conditions: in vivo
4T1 [20] = assay: Antitumor activity against mouse 4T1 cells implanted in female BALB/c mouse assessed as increase in ATF4 level in tumor at 10 mg/kg, iv administered upto 5 days by Western blot analysis; type: functional, organism-based; conditions: time <= 5.0 day
[21] = Toxicity in female BALB/c mouse implanted with mouse 4T1 cells assessed as lung damage at 10 mg/kg, iv; type: organism-based; conditions: in vivo
4T1 [22] = assay: Antitumor activity against mouse 4T1 cells implanted in female BALB/c mouse assessed as tumor growth inhibition at 10 mg/kg, iv administered upto 5 days; type: functional, organism-based; conditions: time <= 5.0 day
4T1 [23] = assay: Antitumor activity against mouse 4T1 cells implanted in female BALB/c mouse model assessed as increase in IFN-gamma expression in tumor at 10 mg/kg, iv administered upto 5 days; type: functional, organism-based; conditions: time <= 5.0 day
4T1 [24] = assay: Antitumor immunity against mouse 4T1 cells implanted in female BALB/c mouse model assessed as increase in proportion of tumor infiltrating CD8+ T cell at 10 mg/kg, iv administered upto 5 days by flow cytometry analysis; type: functional, organism-based; conditions: time <= 5.0 day
4T1 [25] = assay: Antitumor activity against mouse 4T1 cells implanted in female BALB/c mouse assessed as reduction in tumor weight at 10 mg/kg, iv administered upto 5 days; type: functional, organism-based; conditions: time <= 5.0 day
Cisplatin-resistant 4T1 [26] = assay: Antitumor activity against mouse Cisplatin-resistant 4T1 cells implanted in female BALB/c mouse assessed as reduction in tumor volume at 10 mg/kg, ip; type: functional, organism-based
[27] = Toxicity in female BALB/c mouse implanted with mouse 4T1 cells assessed as lung lesion at 10 mg/kg, iv; type: organism-based; conditions: in vivo
[28] = Toxicity in female BALB/c mouse implanted with mouse 4T1 cells assessed as liver lesion at 10 mg/kg, iv; type: organism-based; conditions: in vivo
MDA-MB-468 [29] = assay: Induction of ferroptosis in human MDA-MB-468 cells expressing GPX4 assessed as reduction in lipid peroxidation level at 25 nM incubated for 6 hrs by C11-BODIPY staining based flow cytometry analysis; type: functional, cell-based
MDA-MB-468 [30] = assay: Induction of ferroptosis in human MDA-MB-468 cells assessed as increase in lipid peroxidation at 25 nM by C11-BODIPY staining based flow cytometry analysis; type: functional, cell-based; conditions: time <= 24.0 hrs
MDA-MB-468 [31] = assay: Induction of endoplasmic reticulum (ER) stress-mediated apoptosis in human MDA-MB-468 cells assessed as increase in ATF4 expression at 25 nM measured at 4 to 48 hrs by Western blot analysis; type: functional, cell-based; conditions: time 4-48 hrs
MDA-MB-468 [32] = assay: Induction of endoplasmic reticulum (ER) stress-mediated apoptosis in human MDA-MB-468 cells assessed as increase in CHOP expression at 25 nM measured at 4 to 48 hrs by Western blot analysis; type: functional, cell-based; conditions: time 4-48 hrs

CCCCCCC[C@@H]1CC(=O)N[C@H](Cc2ccccc2)C(=O)N[C@H]2CSSC[C@H](NC2=O)C(=O)O1
inactive: inhibition [12] | Activity (MDA-MB-468 [13])
Non-toxic: Activity [1] | Activity [10] | Activity [14] | Activity [18] | Activity [19] | Activity [21] | Activity [27] | Activity [28]
active: Activity (MDA-MB-468 [2]) | Activity (4T1 [3]) | Activity (A549) | Activity (MDA-MB-468 [4]) | Activity (Cisplatin-resistant 4T1 [5]) | Activity (Cisplatin-resistant 4T1 [6]) | Activity (MDA-MB-468 [7]) | Activity (MDA-MB-468 [8]) | Activity (MDA-MB-468 [9]) | Activity (4T1 [11]) | Activity (4T1 [15]) | Activity (4T1 [16]) | Activity (4T1 [17]) | Activity (4T1 [20]) | TGI (4T1 [22]) | Activity (4T1 [23]) | Activity (4T1 [24]) | Activity (4T1 [25]) | Activity (Cisplatin-resistant 4T1 [26])

CCCCCCC[C@@H](O)CC(=O)N[C@H](Cc1ccccc1)C(=O)N[C@H]1CSSC[C@@H](C(=O)O)NC1=O
inactive: inhibition [12] | Activity (MDA-MB-468 [13])
active: Activity (MDA-MB-468 [29]) | Activity (MDA-MB-468 [30]) Time-dependent-effect | Activity (MDA-MB-468 [31]) | Activity (MDA-MB-468 [32])

CCCCCCC[C@@H]1CC(=O)N[C@H](Cc2ccccc2)C(=O)N[C@@H](CSC)C(=O)N[C@@H](CSC)C(=O)O1
inactive: inhibition [12] | Activity (MDA-MB-468 [13])
active: Activity (MDA-MB-468 [29]) | Activity (MDA-MB-468 [30]) Time-dependent-effect | Activity (MDA-MB-468 [31]) | Activity (MDA-MB-468 [32])
